Our source for the IC50 and EC50 values is US10981932B2, “Macrocyclic indole derivatives” (Bayer Aktiengesellschaft, priority 2016, dated 2021).

The test system of assay [1] is A2780. Put plainly: Anti-proliferative effect (CellTiter-Glo, 72 h), A2780. The assay is classed as cell-based. Conditions: Homo sapiens, A2780, 72 h, A2780 cells, median, read-out: IC50 antiproliferation assay A2780 [M] (median). Put shortly:
(§1)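 Viable cells quantified with CellTiter-Glo after 72 h at 37 °C; rim wells excluded; day 0 plate as baseline.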

Assay [2] deals with SUDHL5. Kind of assay: Induction of caspase-3/7 activity (Caspase-Glo 3/7), SUDHL5. The assay is classed as cell-based. Conditions: Homo sapiens, SU-DHL-5, 3 h, caspase-3/7 induction, SUDHL5 cells, 3 h treatment; median. A digest of the protocol: (§2)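 Caspase-Glo 3/7 luminescence, 3 h compound exposure, 37 °C, humidified. Minus medium-only blank. EC50 fit: C0=1, plateau = reference max induction.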

Assay [3] has as its system SUDHL5. Put plainly: Anti-proliferative effect (CellTiter-Glo, 72 h), SUDHL5. The assay is classed as cell-based. The settings on record: Homo sapiens, SU-DHL-5, 72 h, SUDHL5 cells, antiproliferation, median, read-out: Antiproli SUDHL5 [M] (median). Put shortly:
as §1

In assay [4] the test system is SUDHL10. Kind of assay: Induction of cytotoxicity (CellTiter-Glo, 5 h), SUDHL10. Conditions: Homo sapiens, SU-DHL10, 5 h. In general terms: ATP-based viability assays read luminescence as a measure of living cells.
For assay [5], the system named is SUDHL5. Put plainly: Induction of cytotoxicity (CellTiter-Glo, 5 h), SUDHL5. Conditions: Homo sapiens, SU-DHL-5, 5 h.
Assay [6] addresses MCL-1 (Homo sapiens, UniProt Q07820). Kind of assay: Protein-protein interaction assay MCL-1/Noxa BH3 peptide (MCL-1 assay), TR-FRET. Format: binding. Conditions: MBP-MCL-1 / Noxa BH3-derived peptide, median. A digest of the protocol:
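Displacement of the biotinylated Noxa BH3 peptide from MBP-tagged human MCL-1 (1 nM) is detected by time-resolved FRET. Compounds are tested in duplicate across eleven concentrations up to 20 μM, incubated 1 h at 22 °C and overnight at 4 °C, and IC50 is fitted with a four-parameter equation.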
In general terms: Time-resolved FRET reads energy transfer from a long-lived donor to a nearby acceptor.

For assay [7], the system named is SUDHL10. Put plainly: Anti-proliferative effect (CellTiter-Glo, 72 h), SUDHL10. Format: cell-based. Conditions: Homo sapiens, SU-DHL10, 72 h, SUDHL10 cells, antiproliferation, median, read-out: Antiproli SUDHL10 [M] (median). Put shortly: as §1
Assay [8] concerns MV-4-11. Kind of assay: Anti-proliferative effect (CellTiter-Glo, 72 h), MV-4-11. The assay is classed as cell-based. The settings on record: Homo sapiens, MV4-11, 72 h, MV-4-11 cells, median, read-out: IC50 antiproliferation assay MV-4-11 [M] (median). A digest of the protocol:
as §1

Assay [9] deals with SUDHL10. Kind of assay: Induction of caspase-3/7 activity (Caspase-Glo 3/7), SUDHL10. Format: cell-based. The settings on record: Homo sapiens, SU-DHL10, 3 h, caspase-3/7 induction, SUDHL10 cells, 3 h treatment; median. A digest of the protocol: as §2
Where [10] appears, read: read-out: Cytotox SUDHL10 [M] (median), SUDHL10 cells, cytotoxicity induction, CellTiter-Glo, 5 h incubation, median.
[11] abbreviates: read-out: Cytotox SUDHL5 [M] (median), SUDHL5 cells, cytotoxicity induction, CellTiter-Glo, 5 h incubation, median.

Sequence of MCL-1 (Q07820 whole entry): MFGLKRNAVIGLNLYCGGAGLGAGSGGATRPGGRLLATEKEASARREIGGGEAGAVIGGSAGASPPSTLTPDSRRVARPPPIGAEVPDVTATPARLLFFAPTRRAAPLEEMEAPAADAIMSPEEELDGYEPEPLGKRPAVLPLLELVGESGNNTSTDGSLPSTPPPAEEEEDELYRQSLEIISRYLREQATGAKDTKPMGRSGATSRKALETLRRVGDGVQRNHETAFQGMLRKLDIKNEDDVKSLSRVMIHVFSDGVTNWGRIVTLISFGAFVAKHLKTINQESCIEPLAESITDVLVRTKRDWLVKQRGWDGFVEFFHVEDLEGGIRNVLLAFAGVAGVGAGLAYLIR

In the case of `O=C(O)c1c(CCCOc2cccc3ccccc23)c2cccc3c2n1CCCCOCc1nn2c(c1-3)CCCC2` (racemic) [Example 253, (rac)-1-[3-(naphthalen-1-yloxy)propyl]-4,5,6,7,12,13,14,15-octahydro-9H-pyrido[1″,2″:1′,5′]pyrazolo[4′,3′:9,10][1,6]oxazacycloundecino[8,7,6-hi]indole-2-carboxylic Acid], the IC50 in assay [1] was determined as 2.83e-05 M; in assay [3] (72 h incubation), 5.74e-06 M; in [4] (setting [10]), 1.96e-05 M; in assay [5] (setting [11]), 6.7e-06 M; in [6], 0.00867 µM; in assay [7] (72 h incubation), 1.17e-05 M. In [8], the IC50 was 7.59e-06 M. Also, the concentration giving a half-maximal response (EC50) in assay [2] is 6.7 µM; in assay [9], 18.6 µM.
On to `Cc1ccc2c(C(C)CCOc3cccc4cc(F)ccc34)c(C(=O)O)n3c2c1-c1c(nn(C)c1C)COCCCC3` (racemic) [Example 276, 7-{4-[(6-fluoronaphthalen-1-yl)oxy]butan-2-yl}-2,3,4-trimethyl-2,10,11,12,13,15-hexahydropyrazolo[4′3′:9,10][1,6]oxazacycloundecino[8,7,6-hi]indole-8-carboxylic Acid], for which the IC50 amounted to 1.22e-05 M in assay [1]; 5.85e-06 M in assay [3] (72 h incubation); 1.03e-05 M in assay [4] (setting [10]); 5.23e-06 M in assay [5] (setting [11]); 0.00756 µM in assay [6]; 7.32e-06 M in [7] (72 h incubation). Moreover, the IC50 in [8] was found to be 1.2e-05 M. In addition, the concentration giving a half-maximal response (EC50) worked out at 4.07 µM in assay [2] and 10.3 µM in assay [9].
Regarding `Cc1c2c(nn1CCN1CCOCC1)COCCCCn1c(C(=O)O)c(CCCOc3cccc4cc(F)ccc34)c3cccc-2c31` (racemic) [Example 284, (rac)-7-{3-[(6-fluoronaphthalen-1-yl)oxy]propy}-3-methyl-2-[2-(morpholin-4-yl)ethyl]-2,10,11,12,13,15-hexahydropyrazolo[4′,3′:9,10][1,6]oxazacycloundecino[8,7,6-hi]indole-8-carboxylic Acid], the IC50 in assay [1] worked out at 1.52e-05 M; in assay [3] (72 h incubation), 2.82e-06 M; in assay [4] (setting [10]) it was 4.25e-06 M; in assay [5] (setting [11]) it was 2.46e-06 M; in assay [6], 0.00221 µM; in [7] (72 h incubation) it was 7.01e-06 M. For the same compound, the IC50 in [8] came to 8.62e-06 M. In addition, the values for the 50% effective concentration (EC50) in assay [2] and in assay [9] were 1.84 µM and 3.73 µM, respectively.
In the case of `CCc1nn(C)c2c1-c1cccc3c(CCCOc4cccc5cc(F)ccc45)c(C(=O)O)n(c13)CCCCOC2` (racemic) [Example 287, (rac)-3-ethyl-7-{3-[(6-fluoronaphthalen-1-yl)oxy]propyl}-1-methyl-1,10,11,12,13,15-hexahydropyrazolo[4′,3′:9,10][1,6]oxazacycloundecino[8,7,6-hi]indole-8-carboxylic Acid], the IC50 was found to be 3.05e-05 M in assay [1]; 7.2e-06 M in [3] (72 h); 1.58e-05 M in assay [4] (read-out: Cytotox SUDHL10 [M] (median), SUDHL10 cells, cytotoxicity induction, CellTiter-Glo, 5 h, median); 5.19e-06 M in [5] (read-out: Cytotox SUDHL5 [M] (median), SUDHL5 cells, cytotoxicity induction, CellTiter-Glo, 5 h, median); 0.00206 µM in assay [6]; 8.1e-06 M in [7] (72 h). Further, the IC50 in assay [8] worked out at 1.49e-05 M. Besides, the figures for the concentration giving a half-maximal response (EC50) in assay [2] and in assay [9] were 5.14 µM and 13 µM, respectively.

Broadly, the EC50 is the midpoint of the concentration-response curve. Low readings indicate higher potency in that assay, high ones lower potency in that assay.
